We go through five compounds from publication PMC3676791, “Synthesis, Cytotoxicity, DNA Binding and Apoptosis of Rhein-Phosphonate Derivatives as Antitumor Agents” (International Journal of Molecular Sciences, 2013).

One assay has as its system Hela cells. The experiment in a line: MTT cytotoxicity assay, Hela. Format: cell-based, human. Particulars: 72 h, mean ± SD, three independent experiments. From the text:
(§1) The following in vitro human cancer cell lines were used: HepG 2 ([…]), Hela (Henrietta Lacks strain of cancer cells), Hct-116 (human colorectal cells), CNE (human nasopharyngeal carcinoma cells), Spca-2 (human lung adenocarcinoma cell line), HUVEC (human umbilical vein endothelial cells). The cell lines (HepG 2, Hela, Hct-116, CNE, Spca-2, HUVEC) were purchased from the Cell Resource Center of Shanghai Institutes for Biological Sciences, The Academy of Sciences of China.
(§2) HepG-2, Hela, Hct-116, CNE, HUVEC cells were cultured in Dulbecco Modified Eagle Medium (DMEM) (Thermo), containing 4.0 mM L-Glutamine and 4,500 mg/L Glucose, supplemented with 10% (v/v) fetal bovine serum (FBS; HyClone, Logan, UT, USA). Spca-2 cells were cultured in RPMI-1640 medium, containing 2.05 mM L-Glutamine without Calcium nitrate, supplemented with 10% (v/v) fetal bovine serum (FBS; HyClone). The cell culture media was supplemented with penicillin/streptomycin at 100 Units/mL as adherent monolayers. Cell cultures were kept in a humidified incubator with 5% CO2 at 37 °C. Stock solutions were prepared in dimethyl sulfoxide (DMSO) and further dilutions were made with fresh culture medium. The concentration of DMSO in the final culture medium was 1%, which had no effect on the cell viability.
(§3) Chemosensitivity was assessed using 3-(4,5-dimethylthiazol-2-yl)-2,5-diphenyl tetrazolium bromide (MTT) assay. Briefly, exponentially growing HepG-2 (2,000–3,000 cells/well), Hela (2,000–3,000 cells/well), Hct-116 (3,000–4,000 cells/well), CNE (2,000–3,000 cells/well), HUVEC (2,000–3,000 cells/well) and Spca-2 […], and then […] of MTT (10 mg/mL) was added. After incubation for 4 h at 37 °C, the purple formazan crystals (i.e., a reduced form of MTT) generated from viable cells were dissolved by adding 100 μL DMSO in each well. The plates were swirled gently for 10 min to dissolve the precipitate, and quantified by measuring the optical density (OD) of the plates at a wavelength of 490 nm on plate reader (TECAN infinite M1000). Each concentration was repeated in three wells and the same experimental conditions were provided for all compounds and MTT analysis was repeated three times for each cell line.
(In general: Formazan colour is commonly taken as a measure of viable cells.)

The test system of assay [1] is Hct-116 cells. Particulars: cited from earlier work.
Assay [2] relates to HepG-2 cells. The experiment in a line: MTT cytotoxicity assay, HepG-2. The assay is classed as cell-based, human. To be noted: 72 h, mean ± SD, three independent experiments.
Text: as §1, §2, §3

The subject of a further assay is CNE cells. The experiment in a line: MTT cytotoxicity assay, CNE. Format: cell-based, human. To be noted: 72 h, mean ± SD, three independent experiments.
Text: as §1, §2, §3

Another assay deals with Spca-2 cells. The experiment in a line: MTT cytotoxicity assay, Spca-2. Format: cell-based, human. Particulars: 72 h; mean ± SD, three independent experiments.
Text: as §1, §2
as §3, with “Each concentration was repeated in three wells and the same experimental conditions were provided for all compounds and MTT analysis was repeated three times for each cell line.” left out

The test system of assay [3] is Hct-116 cells. The experiment in a line: MTT cytotoxicity assay, Hct-116. Format: cell-based, human. To be noted: 72 h; mean ± SD, three independent experiments.
Text: as §1, §2
as §3, with “Each concentration was repeated in three wells and the same experimental conditions were provided for all compounds and MTT analysis was repeated three times for each cell line.” left out

The subject of assay [4] is HepG-2 cells. The experiment in a line: Annexin V-FITC/PI apoptosis flow cytometry, HepG-2. Format: cell-based, human. To be noted: 24 h. The text has this:
Many anthraquinones such as rhein and emodim induce apoptosis. Flow cytometry was used to investigate analog-induced apoptosis and cell death. The compounds (5a–c) with cytotoxic effects were investigated for the effects on the apoptosis of HepG-2 cells. To clarify the mechanism of rhein derivative-induced cell death, we determined both early and late apoptosis using annexin V-FITC and PI (Propidium iodide) labeling of live cells. Annexin V binds to phosphatidylserine, which is exposed on the cell membrane and is one of the earliest indicators of cellular apoptosis. PI is used as a DNA stain for both flow cytometry to evaluate cell viability or DNA content in cell cycle analysis and microscopy to visualize the nucleus and other DNA containing organelles. It can be used to differentiate necrotic, apoptotic and normal cells. In the present study, the apoptotic cell rates were determined for the HepG-2 cells after stimulation for 24 h by the compounds at different concentrations. […] Compounds 5a and 5b induced apoptosis in 84.4% and 70.4% of the HepG-2 cells. Compounds 5a and 5b are of special interest as these compounds seem to drive HepG-2 cells directly into early apoptosis. Meanwhile, we also investigated for the effects on the apoptosis of HUVEC cells.
Apoptosis was discriminated with the annexin V-FITC/propidium iodide test. […]
On the technique in general: Flow cytometry measures light scatter and fluorescence of single cells or particles in a stream.

Assay [5] has as its system ct-DNA. The experiment in a line: GelRed-ct-DNA competitive fluorescence quenching (Stern-Volmer). Format: binding, calf. Also noted: unit not given here. To be noted: [GelRed]/[DNA] = 1:10, excitation 350 nm, emission 590 nm. The text has this:
The binding ability of these complexes to ct-DNA was primarily investigated by competitive binding in which they served as an intercalative binding probe in competition with GelRed. GelRed, which is environmentally safe and ultra-sensitive for DNA staining, is a newly developed DNA intercalator to replace the classic DNA intercalator EB. Furthermore, both GelRed and EB bound with ct-DNA emit characteristic fluorescence at 590 nm upon 350 nm UV light excitation.
In competitive binding experiments, GelRed and ct-DNA solutions were pre-incubated for 30 min to ensure sufficient interactions. The concentration ratio of GelRed to DNA was set at [GelRed]/[DNA] = 1:10 to ensure sufficient binding sites of DNA for GelRed. The emission spectra of the GelRed–ctDNA system in the absence and presence of 5b were shown in Figure 2 (for that of 5a and 5c, see Figures S3 and S4). […] The presence of 5b considerably quenched the fluorescence emission of GelRed with the saturation state achieved at the [5b]/[GelRed] ratio of 8:1.
where [DNA] is the DNA concentration in nucleotides, ɛa is the molar extinction coefficient of the compound bound with DNA, ɛf is the extinction coefficient of the free compound, and ɛb is the extinction coefficient of the compound fully bound to DNA. ɛa, ɛf and ɛb are all calculated from the Lambert-Beer’s law (ɛ = A/[compound]). To determine ɛb, it is assumed that the compounds are fully bound with DNA at the point where no further hypochromicity is observed under the addition of ct-DNA, and the apparent absorbance Ab is regarded as the absorbance of only the bound compounds. Ct is the constant concentration of the compounds, and s is the number of binding sites in base pairs. A solution containing 2 × 10^−4 M DNA and 2 × 10^−5 M GelRed ([DNA]/[GelRed] = 10:1) was prepared for GelRed-DNA competitive binding studies. Fluorescence emission spectra were recorded under slit width as 10 nm/10 nm for Ex/Em, respectively. The quenching constant for comparing the efficiency of fluorescence quenching, i.e., Kq, of each compound was obtained by the linear fit of plotting I0/I versus [Q], according to the classic Stern-Volmer equation: I0/I = 1 + Kq × [Q] […] In the fluorescence polarization experiment, each sample was pre-incubated for 40 min before the fluorescence polarization was recorded under the condition of 595 nm emitting wavelength with 350 nm exciting wavelength, and slit width was set as 5 nm/5 nm for Ex/Em, respectively. CD absorption spectra of DNA were measured in TBS at a 100 nm/min scan rate in the wavelength range from 200 to 400 nm, with 1 × 10^−4 M DNA in the absence and presence of each compound of 2 × 10^−5 M, respectively. […]

The test system of the next assay is HUVEC cells. The experiment in a line: MTT cytotoxicity assay, HUVEC normal cells. Particulars: normal cell line, 72 h, mean ± SD, three independent experiments. Format: cell-based, human.
Text: as §1, §2, §3

Assay [6] deals with HepG-2 cells. The experiment in a line: Cell cycle analysis by PI flow cytometry, HepG-2. The assay is classed as cell-based, human. To be noted: 48 h, untreated 4.27%. From the text:
The cell cycle is the series of events that take place in a cell leading to its division and duplication (replication). The cell cycle consists of four distinct phases: G1 phase, S phase (synthesis), G2 phase (collectively known as interphase) and M phase (mitosis). The G1 stage is the stage when preparation of energy and material for DNA replication occurs. The S stage is the stage when DNA replication occurs. The G2 stage is the stage when preparation for the M stage occurs. The M stage is “mitosis,” and is when nuclear and cytoplasmic division occurs.
The cell lines were treated with indicated concentrations of compounds. After being incubated for 48 h, cells were washed twice with ice-cold PBS, fixed and permeabilized with ice-cold 70% ethanol at −20 °C overnight. The cells were treated with 100 μg/mL RNase A at 37 °C for 30 min after washed with ice-cold PBS, and finally stained with 1 mg/mL propidium iodide (PI) in the dark at 4 °C for 30 min. Analysis was performed with the system software (CellQuest; BD Biosciences).

The test system of assay [7] is ct-DNA. The experiment in a line: Circular dichroism spectra of ct-DNA. Format: binding, calf. Particulars: [5b]/[DNA] ratio 1:10. From the text: The circular dichroism (CD) is a useful technique to assess whether the nucleic acids undergo conformational changes as a result of complex formation or changes in environmental conditions. […] This was consistent with the characteristic B conformation of DNA [56].
The decrease in the intensities of both positive and negative bands can usually be observed in the intercalative binding of small molecules to DNA [57].
where [DNA] is the DNA concentration in nucleotides, ɛa is the molar extinction coefficient of the compound bound with DNA, ɛf is the extinction coefficient of the free compound, and ɛb is the extinction coefficient of the compound fully bound to DNA. ɛa, ɛf and ɛb are all calculated from the Lambert-Beer’s law (ɛ = A/[compound]). To determine ɛb, it is assumed that the compounds are fully bound with DNA at the point where no further hypochromicity is observed under the addition of ct-DNA, and the apparent absorbance Ab is regarded as the absorbance of only the bound compounds. […] Fluorescence emission spectra were recorded under slit width as 10 nm/10 nm for Ex/Em, respectively. The quenching constant for comparing the efficiency of fluorescence quenching, i.e., Kq, of each compound was obtained by the linear fit of plotting I0/I versus [Q], according to the classic Stern-Volmer equation: I0/I = 1 + Kq × [Q] […]

Where two headings read alike, the source gives them in different places.

Turning to `O=c1[nH]cc(F)c(=O)[nH]1` [5-Fu, fluorouracil, reference compound], the IC50 with Hela cells (Homo sapiens, HeLa) is above 50 µM; in the assay on Hct-116 cells [1], 4.3 ± 0.52 µM; in the assay with HepG-2 cells [2] (Homo sapiens, HepG2), 20.3 ± 2.43 µM; in the assay on CNE cells (Homo sapiens, CNE), above 50 µM.
For the compound `CCOP(=O)(OCC)C(C)(NC(=O)c1cc(O)c2c(c1)C(=O)c1cccc(O)c1C2=O)c1ccc(C)cc1` (centres unmarked) [5a], the IC50 with Spca-2 cells is 16.9 ± 1.32 µM; with Hct-116 cells [3] it was 30.6 ± 8.75 µM; in the assay on Hela cells, above 50 µM; with HepG-2 cells [2], 15.1 ± 1.54 µM; in the assay on CNE cells it was 33.8 ± 2.17 µM; in the assay with HUVEC cells it was above 100 µM. For the same compound, the “apoptosis induced, % of HepG-2 cells” value in the assay on HepG-2 cells [4] was determined as 84.4%. In the assay on ct-DNA [5], the “quenching constant Kq (Stern-Volmer)” value is reported as 2.02 × 10^3. Further, the G2-phase population with HepG-2 cells [6] (HepG-2, 20 μM) worked out at 7.23%; with HepG-2 cells [6] (HepG-2, 30 μM) it was 11.08%; with HepG-2 cells [6] (HepG-2, 40 μM), 18.05%.
Take `CCOP(=O)(OCC)C(C)(CCc1ccccc1)NC(=O)c1cc(O)c2c(c1)C(=O)c1cccc(O)c1C2=O` (centres unmarked) [5b, O,O′-Diethyl{[2-(4,5-dihydroxy-9,10-dioxo-9,10-dihydroanthracene)acetamido] (Phenylethyl)ethyl} phosphonate]: the IC50 was 9.01 ± 0.87 µM in the assay on Spca-2 cells; 12.7 ± 1.5 µM in the assay with Hct-116 cells [3]; 45.4 µM in the assay with Hela cells; 8.82 ± 0.95 µM in the assay on HepG-2 cells [2]; 27.3 ± 3.78 µM with CNE cells; above 100 µM with HUVEC cells. For the same compound, the “apoptosis induced, % of HepG-2 cells” value in the assay on HepG-2 cells [4] turned out to be 70.4%. Besides, the “quenching constant Kq (Stern-Volmer)” value in the assay on ct-DNA [5] was 3.2 × 10^3. Besides, the “percentage decrease in maximal DNA negative CD absorption” value with ct-DNA [7] (negative band at 245 nm) came to 32.2%. Besides, in the assay on ct-DNA [7] (positive band at 280 nm), the “percentage decrease in maximal DNA positive CD absorption” value came to 9.78%. Further, the G2-phase population in the assay with HepG-2 cells [6] (HepG-2, 10 μM) is 8.52%; in the assay on HepG-2 cells [6] (HepG-2, 20 μM) it was 14.56%; in the assay on HepG-2 cells [6] (HepG-2, 30 μM), 18.23%.
Regarding `O=C(O)c1cc(O)c2c(c1)C(=O)c1cccc(O)c1C2=O` [Rhein], the IC50 with Hela cells (Homo sapiens, HeLa) was above 50 µM; in the assay on HUVEC cells (Homo sapiens, HUVEC), 79.7 ± 5.4 µM. Further, the “quenching constant Kq (Stern-Volmer)” value in the assay on ct-DNA [5] was 3.94 × 10^3.
Turning to “O,O′-Diethyl {[2-(4,5-dihydroxy-9,10-dioxo-9,10-dihydroanthracene) acetamido] (phenyl) methyl} phosphonate [5c]”, the IC50 in the assay on Spca-2 cells was 25.1 ± 2.72 µM; in the assay with Hct-116 cells [3], 23.4 ± 3.22 µM; in the assay on Hela cells, above 50 µM; in the assay with HepG-2 cells [2], 18.2 ± 1.87 µM; in the assay with CNE cells, 38.3 ± 8.23 µM; in the assay on HUVEC cells it was above 100 µM. Further, the “quenching constant Kq (Stern-Volmer)” value in the assay on ct-DNA [5] was 0.753 × 10^3.

The term IC50 denotes the concentration that gives 50% inhibition.
